Patent US9127035B2, “Compounds for use in the treatment of bacterial infection” (THE ROYAL INSTITUTION FOR THE ADVANCEMENT OF …, priority 2011, dated 2015)
Like-named read-outs stand apart in the source and are kept apart here.

Tests used:
[1] = molecular target: T1, E. coli pantothenate kinase (PanK or coaA enzyme) (Escherichia coli, UniProt P0A6I3); settings: natural substrates of PanK; literature values (footnotes a, b); cited from earlier work
T1 construct: made in house
T1 sequence (P0A6I3 1-316): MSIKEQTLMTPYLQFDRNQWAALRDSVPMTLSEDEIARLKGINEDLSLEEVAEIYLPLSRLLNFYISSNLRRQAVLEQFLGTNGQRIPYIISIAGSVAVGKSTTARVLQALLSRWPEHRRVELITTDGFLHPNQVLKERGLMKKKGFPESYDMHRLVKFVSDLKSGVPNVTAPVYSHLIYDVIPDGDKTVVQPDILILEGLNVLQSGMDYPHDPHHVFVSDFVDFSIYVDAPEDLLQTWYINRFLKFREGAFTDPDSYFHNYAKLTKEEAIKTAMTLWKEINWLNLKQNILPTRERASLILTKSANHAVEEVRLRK

[2] = test system: Enterococcus faecium ATCC 19434 which expresses AAC(6′)-li naturally; test: Checkerboard assay, potentiation of kanamycin A on a resistant strain; assay type: cell-based; settings: for effect on the MIC50 of kanamycin A: compound 512 μg/ml combined with kanamycin A, compared to kanamycin A alone
Protocol: General biological methods. Enterococcus faecium ATCC 19434, Staphylococcus aureus ATCC 29213 and 43300, Acinetobacter baumannii ATCC 19606, Pseudomonas aeruginosa ATCC 27853, Klebsiella penumoniae ATCC 13883, and Escherichia coli ATCC 25922 and 11775 were all purchased from Cedarlane (Burlington, ON). E. faecium was grown in Difco brain heart infusion media (BD, Mississauga, ON), S. aureus and P. aeruginosa were grown in Trypticase soy media (BD, Mississauga, ON), and E. coli, A. baumannii, and K. pneumoniae were grown in Nutrient media (BD, Mississauga, ON). Antibacterial tests were performed using Falcon™ Black with Clear Bottom 96-well Microtest™ Optilux plates (BD, Mississauga, ON).
(§1) Checkerboard assay to determine the synergistic activity of compounds 3a-f with kanamycin A or tobramycin on a resistant strain. A two dimensional checkerboard MIC assay was carried out as previously described [Gao F, Yan X, Shakya T, Baettig O M, Ait-Mohand-Brunet S, Berghuis A M, Wright G D, Auclair K; J Med Chem, 2006, 49:5273-5281] to observe for the potentiation activity of compounds 3a-f towards the antibacterial activity of kanamycin A or tobramycin against Enterococcus faecium ATCC 19434 which expresses AAC(6′)-li naturally, or an E. coli strain engineered to express AAC(6)-li. Compounds 3a-f were diluted by 2-fold sequential dilutions to create a gradient from 32 to 512 μg/mL while the concentrations used for kanamycin A or tobramycin were 0, 10, 20, 40, 50, 100, 150, 200, 250, and 300 μg/mL. The cultures were grown at 37° C. for 16 h in 96-well plates, and then monitored for optical density at 600 nm using a Spectramax 190 microplate reader (Molecular Devices, Sunnyvale, Calif.). Data was normalized against a positive growth control and reported as a percentage of bacterial cell growth. All data points are from quadruplicate experiments.

PanK, PPAT and DPCK = test: Biosynthetic in vitro assay with a mixture of PanK, PPAT and DPCK enzymes; assay type: biochemical; settings: substrate 5.0 mM, 3 hours at room temperature; HPLC, approximate ± 5%, duplicate
Protocol: Biosynthetic in vitro assay with a mixture of PanK, PPAT and DPCK enzymes. The E. coli enzymes pantothenate kinase (PanK or coaA enzyme), phosphopantetheine adenylyltransferase (PPAT or coaD enzyme), and dephosphocoenzyme A kinase (DPCK or coaE enzyme) were expressed and purified as previously described [Geerlof A, Lewendon A, Shaw W V J Biol Chem 1999, 274:27105-27111]. Each reaction mixture (500 μL) contained ATP (5.0 mM), KCl (20 mM), MgCl2 (10 mM), DTT (2.0 mM), PanK (5 μg, 278 nM), PPAT (5 μg, 500 nM), DPCK (5 μg, 454 nM) in Tris-Cl Buffer (50 mM, pH 7.6). The reaction was initiated with the addition of pantetheine (5.0 mM) for comparison, water as a negative control, or compounds 3a-e (5.0 mM). Reactions were incubated for 3 hours at room temperature and then stopped by heating the mixture to 95° C. for 5 min. The precipitated protein was removed by centrifugation (13,000 rpm for 5 min) and the supernatant was analyzed by LC/MS. Reversed-phase analytical HPLC was performed with an analytical 4.60×250 mm, SYNERGI 4p Hydro-RP 80A (Phenomenex, Torrance, Calif.) column coupled to an Agilent 6120 Quadrupole LC/MS system for ESI-MS analysis. The HPLC conditions had the sample eluted at a flow rate of 0.5 mL min^−1 using a combination of mobile phase A (H2O) and mobile phase B (acetonitrile), Elution conditions are as follows: isocratic 1% phase B from 0-3 min; followed by the following linear gradients of phase B: 1-10% from 3-5 min; 10-15% from 5-10 min; 15-30% from 10-13 min; an finally isocratic phase B at 30% from 13-26 min. The detector was set to 214 nm. These experiments were run in duplicate.

[3] = test system: E. coli (BL21) harbouring AAC(6′)-li resistance gene in pET-22b(+) vector; test: Checkerboard assay, potentiation of tobramycin on engineered E. coli; assay type: cell-based; settings: tobramycin combined with compound; E. coli engineered to express AAC(6′)-li
Protocol: as §1

[4] = molecular target: T1, E. coli pantothenate kinase (PanK or coaA enzyme); test: PanK enzyme assay (Michaelis-Menten kinetics); assay type: biochemical; settings: transformation by PanK; 25° C., Tris-HCl pH 7.6; triplicate
Protocol: PanK enzyme assay. The E. coli pantothenate kinase (PanK or coaA enzyme) was expressed and purified as previously described. Enzyme activity was measured as described in the literature [Strauss E, Begley T P J Biol Chem, 2002, 277:48205-48209]. This assay couples the production of ADP to the consumption of NADH through the activity of pyruvate kinase and lactic dehydrogenase. The decrease of NADH concentration was monitored at 340 nm. Reactions were performed at 25° C. in an Agilent 8453 UV-Vis spectrophotometer coupled to an Agilent 89090A Peltier temperature controller. Kinetic parameters were determined by fitting the rate data into the Michaelis-Menten equation using Prism 4.0 (GraphPad). Each reaction mixture (500 μL) contained ATP (1.5 mM), NADH (0.3 mM), phosphoenolpyruvate (0.5 mM), MgCl2 (10 mM), KCl (20 mM), pyruvate kinase (5 units), lactic dehydrogenase (5 units), and PanK (5 μg, 278 nM) in Tris-HCl buffer (50 mM, pH 7.6). The reaction was initiated by addition of the desired substrate (10-160 μM). All data points are from triplicate experiments.

Structure (SMILES)	Compounds detected by LC-MS: 2a-e, relative percentage (PanK, PPAT and DPCK) [%]	Compounds detected by LC-MS: 7a-e, relative percentage (PanK, PPAT and DPCK) [%]	effect on the MIC50 of kanamycin A [2]	Compounds detected by LC-MS: 6a-e, relative percentage (PanK, PPAT and DPCK) [%]	other results
CC(C)(CO)[C@@H](O)C(=O)NCCC(=O)NCCS [Pantetheine]	–	–	–	–	kcat [1]: 0.32 ± 0.02^b sec^−1
CC(C)(CO)[C@@H](O)C(=O)NCCC(=O)O [Pantothenic acid]	–	–	–	–	Km [1]: 17 ± 2 µM; kcat [1]: 1.07 ± 0.04^a sec^−1
NC[C@H]1O[C@H](O[C@H]2[C@H](O)[C@@H](O[C@H]3O[C@H](CO)[C@@H](O)[C@H](N)[C@H]3O)[C@H](N)C[C@@H]2N)[C@H](O)[C@@H](O)[C@@H]1O [kanamycin A, reference compound]	–	–	–	–	MIC50 of kanamycin A (minimum concentration causing a 50% growth inhibition) ([2]; kanamycin A alone, in the absence of compounds 3a-e): ~125 µg/mL
CC(C)(CO)[C@@H](O)C(=O)NCCC(=O)NCCSCCCCCC(=O)NC[C@H]1O[C@H](O[C@H]2[C@H](O)[C@@H](O)[C@H](N)C[C@@H]2N)[C@H](N)[C@@H](O)[C@@H]1O [Compound 3e, Neamine 6′-N—(R)-(3-((2-((2-amino-2-oxohexyl)thio)ethyl)amino)-3-oxopropyl)-2,4-dihydroxyl-3,3-dimethylbutanamide]	80	20	drop by half	–	–
CC(C)(CO)[C@@H](O)C(=O)NCCC(=O)NCCSCCCCC(=O)NC[C@H]1O[C@H](O[C@H]2[C@H](O)[C@@H](O)[C@H](N)C[C@@H]2N)[C@H](N)[C@@H](O)[C@@H]1O [Compound 3d, Neamine 6′-N—(R)-(3-((2-((2-amino-2-oxopentyl)thio)ethyl)amino)-3-oxopropyl)-2,4-dihydroxyl-3,3-dimethylbutanamide]	90	10	drop by half	–	reduction in the MIC of tobramycin [3]: 10 fold
CC(C)(CO)[C@@H](O)C(=O)NCCC(=O)NCCSCC(=O)NC[C@H]1O[C@H](O[C@H]2[C@H](O)[C@@H](O)[C@H](N)C[C@@H]2N)[C@H](N)[C@@H](O)[C@@H]1O [Compound 3a, Neamine 6′-N—(R)-(3-((2-((2-amino-2-oxoethyl)thio)ethyl)amino)-3-oxopropyl)-2,4-dihydroxyl-3,3-dimethylbutanamide]	–	25	negligible effect	5	Compounds detected by LC-MS: 3a-e (starting material), relative percentage (PanK, PPAT and DPCK): 70%; Km [4]: ≥ 500 µM
CC(C)(CO)[C@@H](O)C(=O)NCCC(=O)NCCSCCCC(=O)NC[C@H]1O[C@H](O[C@H]2[C@H](O)[C@@H](O)[C@H](N)C[C@@H]2N)[C@H](N)[C@@H](O)[C@@H]1O [Compound 3c, Neamine 6′-N—(R)-(3-((2-((2-amino-2-oxobutyl)thio)ethyl)amino)-3-oxopropyl)-2,4-dihydroxyl-3,3-dimethylbutanamide]	55	40	–	5	dose dependence of the potentiation of kanamycin A ([2]; compound 32 to 512 μg/mL with kanamycin A): dose-dependent effect
CC(C)(CO)[C@@H](O)C(=O)NCCC(=O)NCCSCCC(=O)NC[C@H]1O[C@H](O[C@H]2[C@H](O)[C@@H](O)[C@H](N)C[C@@H]2N)[C@H](N)[C@@H](O)[C@@H]1O [Compound 3b, Neamine 6′-N—(R)-(3-((2-((2-amino-2-oxopropyl)thio)ethyl)amino)-3-oxopropyl)-2,4-dihydroxyl-3,3-dimethylbutanamide]	10	70	–	20	–
